For assay [1], the target named is Casein kinase II subunit alpha (Homo sapiens) (UniProt P68400). In words: Inhibition of recombinant full length human His-tagged CK2 alpha 1 expressed in baculovirus expression system at 0.1 uM using serine/threonine-11 peptide as substrate incubated for 60 mins by Z'-LYTE assay relative to control.
The target of assay [2] is Serine/threonine-protein kinase PAK 3 (Homo sapiens) (UniProt O75914). Description: Inhibition of recombinant full length human His-tagged PAK3 expressed in baculovirus expression system at 0.1 uM using serine/threonine-20 peptide as substrate incubated for 60 mins by Z'-LYTE assay relative to control.
For assay [3], the target named is Mitogen-activated protein kinase kinase kinase 20 (Homo sapiens) (UniProt Q9NYL2). In words: Inhibition of recombinant full length human GST-tagged ZAK expressed in baculovirus expression system at 0.1 uM using CREBtide as substrate 60 mins by Lanthascreen assay relative to control. For orientation: TR-FRET usually uses a lanthanide donor and a delayed reading to cut background.

For assay [4], the target named is Mitogen-activated protein kinase 1 (Homo sapiens) (UniProt P28482). In words: Inhibition of recombinant full length human GST-tagged ERK2 expressed in Escherichia coli expression system at 0.1 uM using serine/threonine-3 peptide as substrate incubated for 60 mins by Z'-LYTE assay relative to control.
Sequence of Mitogen-activated protein kinase 1 (Homo sapiens) (P28482 whole entry): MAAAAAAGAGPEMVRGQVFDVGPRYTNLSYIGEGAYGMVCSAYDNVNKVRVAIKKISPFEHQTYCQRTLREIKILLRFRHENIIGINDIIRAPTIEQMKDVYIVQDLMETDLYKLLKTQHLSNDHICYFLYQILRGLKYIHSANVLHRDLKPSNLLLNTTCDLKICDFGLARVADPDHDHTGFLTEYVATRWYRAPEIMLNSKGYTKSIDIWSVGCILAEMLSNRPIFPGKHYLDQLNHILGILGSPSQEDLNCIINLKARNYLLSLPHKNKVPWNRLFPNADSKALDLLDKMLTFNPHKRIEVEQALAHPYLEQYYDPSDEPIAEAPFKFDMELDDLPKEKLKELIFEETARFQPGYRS
In assay [5] the target is Tyrosine-protein kinase Srms (Homo sapiens) (UniProt Q9H3Y6). In words: Inhibition of recombinant full length human GST-tagged SRM expressed in baculovirus expression system at 0.1 uM using tyrosine-1 peptide as substrate incubated for 60 mins by Z'-LYTE assay relative to control.
For assay [6], the target named is Serine/threonine-protein kinase N1 (Homo sapiens) (UniProt Q16512). Description: Inhibition of recombinant full length human GST-tagged PRK1 expressed in baculovirus expression system at 0.1 uM using serine/threonine-7 peptide as substrate incubated for 60 mins by Z'-LYTE assay relative to control.
The target in assay [7] is Serine/threonine-protein kinase PLK3 (Homo sapiens) (UniProt Q9H4B4). Description: Inhibition of recombinant human GST-tagged PLK3 catalytic domain (58 to 340 residues) expressed in baculovirus expression system at 0.1 uM using serine/threonine-16 peptide as substrate incubated for 60 mins by Z'-LYTE assay relative to control.
Sequence of Serine/threonine-protein kinase PLK3 (Homo sapiens) (Q9H4B4 whole entry, looked up, the tested form may be a part): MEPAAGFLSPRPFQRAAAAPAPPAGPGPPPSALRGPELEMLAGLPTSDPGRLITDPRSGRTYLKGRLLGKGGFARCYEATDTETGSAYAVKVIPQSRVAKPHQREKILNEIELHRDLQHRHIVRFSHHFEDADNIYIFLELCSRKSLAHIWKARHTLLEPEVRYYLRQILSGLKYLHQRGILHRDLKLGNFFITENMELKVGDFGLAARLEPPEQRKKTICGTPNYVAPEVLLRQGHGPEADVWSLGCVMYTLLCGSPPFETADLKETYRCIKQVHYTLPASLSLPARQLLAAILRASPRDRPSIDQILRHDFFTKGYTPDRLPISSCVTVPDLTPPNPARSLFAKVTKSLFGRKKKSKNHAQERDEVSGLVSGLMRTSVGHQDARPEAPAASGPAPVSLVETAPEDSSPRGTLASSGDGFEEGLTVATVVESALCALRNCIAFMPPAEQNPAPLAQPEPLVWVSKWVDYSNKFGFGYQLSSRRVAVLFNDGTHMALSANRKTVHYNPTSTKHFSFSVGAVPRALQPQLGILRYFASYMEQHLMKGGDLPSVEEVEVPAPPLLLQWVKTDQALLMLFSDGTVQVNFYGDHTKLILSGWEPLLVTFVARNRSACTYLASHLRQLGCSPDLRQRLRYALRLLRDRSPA
In assay [8] the target is Ephrin type-A receptor 7 (Homo sapiens) (UniProt Q15375). Description: Inhibition of tracer 236 binding to recombinant human His-tagged EPHA7 (579 to 998 residues) expressed in baculovirus expression system at 0.1 uM measured after 60 mins by Lanthascreen assay relative to control.
Sequence of Ephrin type-A receptor 7 (Homo sapiens) (Q15375 28-998 limits assumed): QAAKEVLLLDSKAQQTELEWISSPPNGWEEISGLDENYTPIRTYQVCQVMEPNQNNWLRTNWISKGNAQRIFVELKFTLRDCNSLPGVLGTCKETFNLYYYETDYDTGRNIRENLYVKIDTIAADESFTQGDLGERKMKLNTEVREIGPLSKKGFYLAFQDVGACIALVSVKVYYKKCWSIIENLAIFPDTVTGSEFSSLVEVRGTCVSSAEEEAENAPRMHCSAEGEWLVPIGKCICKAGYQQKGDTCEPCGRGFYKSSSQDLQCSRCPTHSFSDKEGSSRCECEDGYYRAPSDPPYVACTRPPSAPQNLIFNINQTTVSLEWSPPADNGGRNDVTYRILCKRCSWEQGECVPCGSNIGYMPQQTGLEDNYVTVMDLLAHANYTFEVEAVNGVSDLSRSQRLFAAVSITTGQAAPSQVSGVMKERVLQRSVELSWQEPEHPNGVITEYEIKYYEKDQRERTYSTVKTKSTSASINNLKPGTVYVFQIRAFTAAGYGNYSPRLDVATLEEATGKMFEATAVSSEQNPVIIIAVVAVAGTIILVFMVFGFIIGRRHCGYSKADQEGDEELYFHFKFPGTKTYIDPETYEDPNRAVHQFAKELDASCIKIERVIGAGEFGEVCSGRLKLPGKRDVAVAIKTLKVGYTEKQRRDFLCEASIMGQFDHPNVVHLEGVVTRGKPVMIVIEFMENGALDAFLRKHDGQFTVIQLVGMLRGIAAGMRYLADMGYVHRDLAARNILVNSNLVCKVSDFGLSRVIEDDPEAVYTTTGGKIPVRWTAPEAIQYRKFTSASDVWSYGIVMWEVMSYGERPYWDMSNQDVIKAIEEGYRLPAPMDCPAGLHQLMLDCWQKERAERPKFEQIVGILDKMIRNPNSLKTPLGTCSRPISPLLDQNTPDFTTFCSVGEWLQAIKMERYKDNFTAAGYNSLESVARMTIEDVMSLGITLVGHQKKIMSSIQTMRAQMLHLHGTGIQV
The target of assay [9] is Mitogen-activated protein kinase kinase kinase kinase 4 (Homo sapiens) (UniProt O95819). Description: Inhibition of recombinant human GST-tagged MAP4K4 catalytic domain (1 to 328 residues) expressed in baculovirus expression system at 0.1 uM using serine/threonine-7 peptide as substrate incubated for 60 mins by Z'-LYTE assay relative to control.
Assay [10] has as its target Protein kinase C theta type (Homo sapiens) (UniProt Q04759). In words: Inhibition of recombinant full length human His-tagged PKCtheta expressed in baculovirus expression system at 0.1 uM using serine/threonine-7 peptide as substrate incubated for 60 mins by Z'-LYTE assay relative to control.
Assay [11] addresses BDNF/NT-3 growth factors receptor (Homo sapiens) (UniProt Q16620). Description: Inhibition of recombinant human His-tagged TRKB catalytic domain (526 to 838 residues) expressed in baculovirus expression system at 0.1 uM using tyrosine-1 peptide as substrate incubated for 60 mins by Z'-LYTE assay relative to control.
The target in assay [12] is Sphingosine kinase 1 (Homo sapiens) (UniProt Q9NYA1). In words: Inhibition of recombinant full length human GST-tagged SPHK1 expressed in baculovirus expression system at 0.1 uM using Sphingosine Lipid as substrate incubated for 60 mins by Adapta assay relative to control.
Sequence of Sphingosine kinase 1 (Homo sapiens) (Q9NYA1 whole entry, the tested form may be a part): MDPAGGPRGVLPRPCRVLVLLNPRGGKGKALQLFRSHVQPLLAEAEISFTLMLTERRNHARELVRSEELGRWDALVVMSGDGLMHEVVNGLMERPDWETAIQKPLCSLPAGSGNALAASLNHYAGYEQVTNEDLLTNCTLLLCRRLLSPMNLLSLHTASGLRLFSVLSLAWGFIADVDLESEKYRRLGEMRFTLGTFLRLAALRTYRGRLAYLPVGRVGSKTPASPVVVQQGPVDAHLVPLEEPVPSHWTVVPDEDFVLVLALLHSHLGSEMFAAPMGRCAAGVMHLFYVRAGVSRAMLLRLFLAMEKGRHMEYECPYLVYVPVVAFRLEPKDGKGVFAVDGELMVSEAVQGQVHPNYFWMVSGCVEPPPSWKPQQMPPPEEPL
For assay [13], the target named is Fibroblast growth factor receptor 4 (Homo sapiens) (UniProt P22455). Description: Inhibition of recombinant human His-tagged FGFR4 catalytic domain ([…]) expressed in baculovirus expression system at 0.1 uM using tyrosine-4 peptide as substrate incubated for 60 mins by Z'-LYTE assay relative to control.
The target of assay [14] is NUAK family SNF1-like kinase 1 (Homo sapiens) (UniProt O60285). Description: Inhibition of recombinant full length human His-tagged ARK5 expressed in baculovirus expression system at 0.1 uM using CHKtide peptide as substrate incubated for 60 mins by Adapta assay relative to control.
Assay [15] addresses Tyrosine-protein kinase Tec (Homo sapiens) (UniProt P42680). In words: Inhibition of tracer 178 binding to recombinant full length human His-tagged TEC expressed in baculovirus expression system at 0.1 uM measured after 60 mins by Lanthascreen assay.
The target in assay [16] is CDK7/Cyclin H/MNAT1 (Homo sapiens) (UniProt P51946+P50613+P51948). Description: Inhibition of recombinant full length human His-tagged CDK7/CyclinH/MAT1 expressed in baculovirus expression system at 0.1 uM using CDK7/9tide peptide as substrate incubated for 60 mins by Adapta assay relative to control.
Assay [17] deals with Myosin light chain kinase, smooth muscle (Homo sapiens) (UniProt Q15746). Description: Inhibition of tracer 236 binding to recombinant full length human GST-tagged MYLK expressed in baculovirus expression system at 0.1 uM measured after 60 mins by Lanthascreen assay relative to control.
The target of assay [18] is Tyrosine-protein kinase Lyn (Homo sapiens) (UniProt P07948). In words: Inhibition of recombinant full length human LYN at 0.1 uM using tyrosine-2 peptide as substrate incubated for 60 mins by Z'-LYTE assay relative to control.
Sequence of Tyrosine-protein kinase Lyn (Homo sapiens) (P07948 2-512 limits assumed): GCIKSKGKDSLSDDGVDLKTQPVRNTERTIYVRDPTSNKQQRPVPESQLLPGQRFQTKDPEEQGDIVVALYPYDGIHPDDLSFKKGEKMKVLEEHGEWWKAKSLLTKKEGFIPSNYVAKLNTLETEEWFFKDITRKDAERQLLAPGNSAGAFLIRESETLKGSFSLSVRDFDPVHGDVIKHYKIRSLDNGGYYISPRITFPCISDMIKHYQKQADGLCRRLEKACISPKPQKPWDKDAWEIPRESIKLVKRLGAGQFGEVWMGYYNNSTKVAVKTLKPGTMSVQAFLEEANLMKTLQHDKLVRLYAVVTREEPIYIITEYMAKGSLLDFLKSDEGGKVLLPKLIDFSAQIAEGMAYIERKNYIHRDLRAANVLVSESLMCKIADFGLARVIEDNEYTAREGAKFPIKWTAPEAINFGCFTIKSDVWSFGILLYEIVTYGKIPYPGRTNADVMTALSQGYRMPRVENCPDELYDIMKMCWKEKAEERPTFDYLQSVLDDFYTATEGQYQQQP
Assay [19] has as its target Cyclin-C/Cyclin-dependent kinase 19 (Homo sapiens) (UniProt Q9BWU1+P24863). Description: Inhibition of tracer 236 binding to recombinant human GST/His-tagged CDK11/Cyclin C catalytic domain (CDK11: 1 to 502, Cyclin C: 1 to 283) expressed in insect cells expression system at 0.1 uM measured after 60 mins by Lanthascreen assay relative to control.
Assay [20] concerns the target Mitogen-activated protein kinase kinase kinase 2 (Homo sapiens) (UniProt Q9Y2U5). Description: Inhibition of tracer 236 binding to recombinant full length human GST-tagged MEKK2 expressed in baculovirus expression system at 0.1 uM measured after 60 mins by Lanthascreen assay relative to control.
Assay [21] has as its target Serine/threonine-protein kinase PLK1 (Homo sapiens) (UniProt P53350). In words: Inhibition of recombinant full length human His-tagged PLK1 expressed in baculovirus expression system at 0.1 uM using serine/threonine-16 peptide as substrate incubated for 60 mins by Z'-LYTE assay relative to control.
The target of assay [22] is Fibroblast growth factor receptor 1 (Homo sapiens) (UniProt P11362). Description: Inhibition of recombinant human His-tagged FGFR1 catalytic domain (308 to 731 residues) expressed in baculovirus expression system at 0.1 uM using tyrosine-4 peptide as substrate incubated for 60 mins by Z'-LYTE assay relative to control.
Assay [23] deals with Misshapen-like kinase 1 (Homo sapiens) (UniProt Q8N4C8). In words: Inhibition of recombinant human GST-tagged MINK1 catalytic domain (1 to 320 residues) expressed in baculovirus expression system at 0.1 uM using serine/threonine-7 peptide as substrate incubated for 60 mins by Z'-LYTE assay relative to control.
Sequence of Misshapen-like kinase 1 (Homo sapiens) (Q8N4C8 whole entry, looked up, the tested form may be a part): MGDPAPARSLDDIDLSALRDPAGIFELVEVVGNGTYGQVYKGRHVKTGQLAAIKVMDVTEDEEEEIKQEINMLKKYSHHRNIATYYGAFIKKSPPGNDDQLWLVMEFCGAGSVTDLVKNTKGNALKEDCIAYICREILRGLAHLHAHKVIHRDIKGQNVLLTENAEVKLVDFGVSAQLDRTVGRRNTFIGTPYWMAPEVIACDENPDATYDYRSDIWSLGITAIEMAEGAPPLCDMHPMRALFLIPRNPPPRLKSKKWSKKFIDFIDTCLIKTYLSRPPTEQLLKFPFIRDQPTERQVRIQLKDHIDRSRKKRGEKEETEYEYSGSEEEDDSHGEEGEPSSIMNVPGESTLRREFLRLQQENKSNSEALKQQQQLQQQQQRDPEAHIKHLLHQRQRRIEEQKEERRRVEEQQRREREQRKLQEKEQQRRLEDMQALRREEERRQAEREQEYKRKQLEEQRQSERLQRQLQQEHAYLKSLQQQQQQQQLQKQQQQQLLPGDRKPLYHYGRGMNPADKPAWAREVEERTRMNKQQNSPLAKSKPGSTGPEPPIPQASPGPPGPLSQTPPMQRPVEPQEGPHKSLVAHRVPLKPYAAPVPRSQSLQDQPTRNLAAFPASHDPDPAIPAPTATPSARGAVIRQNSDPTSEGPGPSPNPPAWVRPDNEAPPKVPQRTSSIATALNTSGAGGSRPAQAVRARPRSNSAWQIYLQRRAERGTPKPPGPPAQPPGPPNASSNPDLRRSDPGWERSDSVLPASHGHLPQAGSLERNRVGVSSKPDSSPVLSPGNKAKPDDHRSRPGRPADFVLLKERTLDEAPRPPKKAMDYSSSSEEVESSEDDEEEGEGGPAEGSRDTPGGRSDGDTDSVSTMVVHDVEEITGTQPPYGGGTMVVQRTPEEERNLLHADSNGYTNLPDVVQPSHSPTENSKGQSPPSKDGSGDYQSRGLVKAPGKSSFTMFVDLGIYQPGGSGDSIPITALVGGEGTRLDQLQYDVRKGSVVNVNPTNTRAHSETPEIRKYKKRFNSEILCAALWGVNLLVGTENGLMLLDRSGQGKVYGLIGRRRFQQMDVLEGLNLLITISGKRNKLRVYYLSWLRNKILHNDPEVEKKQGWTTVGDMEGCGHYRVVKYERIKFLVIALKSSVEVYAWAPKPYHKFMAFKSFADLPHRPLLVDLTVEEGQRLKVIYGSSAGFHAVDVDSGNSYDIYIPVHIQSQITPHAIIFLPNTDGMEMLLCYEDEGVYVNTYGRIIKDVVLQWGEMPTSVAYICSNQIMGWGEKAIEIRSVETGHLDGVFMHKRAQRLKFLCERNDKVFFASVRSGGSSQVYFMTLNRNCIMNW

Sequence of BDNF/NT-3 growth factors receptor (Homo sapiens) (Q16620 32-822 limits assumed): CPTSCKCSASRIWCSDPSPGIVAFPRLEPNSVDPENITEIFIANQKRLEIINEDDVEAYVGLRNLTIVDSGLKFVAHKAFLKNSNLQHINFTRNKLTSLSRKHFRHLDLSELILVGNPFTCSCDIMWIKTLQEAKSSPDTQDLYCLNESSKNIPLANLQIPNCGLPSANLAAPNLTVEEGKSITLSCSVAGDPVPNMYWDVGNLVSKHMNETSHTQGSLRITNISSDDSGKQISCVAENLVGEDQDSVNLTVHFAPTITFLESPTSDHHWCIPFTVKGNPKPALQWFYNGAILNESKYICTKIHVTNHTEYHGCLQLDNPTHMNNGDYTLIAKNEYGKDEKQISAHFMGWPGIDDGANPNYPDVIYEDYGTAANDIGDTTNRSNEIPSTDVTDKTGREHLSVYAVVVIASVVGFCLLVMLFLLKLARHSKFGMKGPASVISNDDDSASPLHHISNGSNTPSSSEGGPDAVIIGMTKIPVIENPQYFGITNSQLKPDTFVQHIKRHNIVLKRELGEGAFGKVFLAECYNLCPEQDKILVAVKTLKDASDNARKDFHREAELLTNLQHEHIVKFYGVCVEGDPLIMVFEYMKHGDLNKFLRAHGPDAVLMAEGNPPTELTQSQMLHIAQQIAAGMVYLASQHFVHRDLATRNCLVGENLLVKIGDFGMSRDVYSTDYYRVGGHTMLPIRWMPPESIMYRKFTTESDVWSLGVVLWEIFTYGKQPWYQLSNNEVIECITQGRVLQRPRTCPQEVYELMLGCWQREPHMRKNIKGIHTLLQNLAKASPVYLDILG

Regarding `CCN1CCN(Cc2ccc(Nc3ncc(F)c(-c4cc(F)c5nc(C)n(C(C)C)c5c4)n3)nc2)CC1` [ABEMACICLIB], the inhibition in [1] is 31.5%; in [2] it was 11.4%; in assay [3], 1.9%; in assay [4] it was 8%; in assay [5], 6%; in assay [6], 7%. For the same molecule, the inhibition is -3.5% in assay [7]; 11.7% in assay [8]; 89.5% in [9]; 21.5% in [10]; 14% in assay [11]; 14.7% in [12]. Moreover, the inhibition turned out to be 11% in [13]; 22.7% in assay [14]; 0.8% in assay [15]; 19.1% in [16]; 14.7% in assay [17]; 6% in assay [18]. In addition, the inhibition in assay [19] was 19%; in assay [20], 2.2%; in assay [21], 8.5%; in [22], -0.4%; in assay [23], 79.5%.
As for `CCN1CC2(C1)CN(c1ccc(Nc3ncc(F)c(-c4cnn5c4[C@H](C)CCCC5)n3)nc1)C2`, the inhibition in assay [1] was determined as 0.5%; in assay [2] it was 8%; in assay [3], 5%; in [4], 6%; in assay [5] it was 0%; in assay [6], 8.5%. Besides, the inhibition amounted to 7.5% in [7]; 5.5% in assay [8]; 39% in [9]; 20.5% in assay [10]; 6.5% in assay [11]; 1.5% in [12]. For the same molecule, the inhibition amounted to 4% in assay [13]; 92% in [14]; 5% in [15]; 10.5% in assay [16]; 5.5% in assay [17]; 7% in assay [18]. In addition, the inhibition in assay [19] was 81%; in assay [20], 10%; in [21], 2%; in assay [22], -4%; in assay [23], 27.5%.

As a reminder, the inhibition is the change of the read-out against control, counted positive when it falls.

Source of the values: ChEMBL document CHEMBL4385643, “Design of a brain-penetrant CDK4/6 inhibitor for glioblastoma” (Bioorg Med Chem Lett, 2019).
